Earlier results, collected in patent US12570633B2, “Preparation method for CDK4/6 inhibitor” (CHIA TAI TIANQING PHARMACEUTICAL GROUP CO., LTD., priority 2020, dated 2026).
pIC50: −log10 of the molar value.

Tests used:
[1] = tested on: CDK4/6; conditions: background statement referring to WO2016141881; read-out: IC50 value against CDK4/6
[2] = tested on: breast cancer; conditions: background statement referring to WO2016141881

- pIC50 [1]: > 9.00
SMILES: CC(C)c1c2cc(-c3nc(Nc4ccc(N5CCNCC5)cn4)ncc3F)ccc2nn1C [compound of formula (I)]
- tumor inhibitory activity against breast cancer [2]: good tumor inhibitory activity
